ChEMBL document CHEMBL5579851, “Synthesis and antifungal evaluation of novel triazole derivatives bearing a pyrazole-methoxyl moiety” (Eur J Med Chem, 2024)
Values after ≈ are worked out from the molar mass of the structure shown.

Tested on: Candida tropicalis
Assay: Antifungal activity against Candida tropicalis 8915 assessed as inhibition of fungal growth incubated for 48 hrs by CLSI based broth microdilution assay
Assay type: functional
Conditions: not given

Compound	MIC
C[C@@H](OCc1ccn(Cc2cccc(F)c2F)n1)[C@](O)(Cn1cncn1)c1ccc(F)cc1F	0.25 µg/mL (≈ 0.526 µM)
C[C@@H](OCc1ccn(Cc2c(F)cc(F)cc2F)n1)[C@](O)(Cn1cncn1)c1ccc(F)cc1F	64 µg/mL (≈ 130 µM)
C[C@@H](OCc1ccn(Cc2ccc([N+](=O)[O-])cc2)n1)[C@](O)(Cn1cncn1)c1ccc(F)cc1F	0.5 µg/mL (≈ 1.03 µM)
C[C@@H](OCc1ccn(Cc2cccc(Cl)c2)n1)[C@](O)(Cn1cncn1)c1ccc(F)cc1F	0.25 µg/mL (≈ 0.528 µM)
C[C@@H](OCc1ccn(Cc2ccc(C#N)cc2)n1)[C@](O)(Cn1cncn1)c1ccc(F)cc1F	0.5 µg/mL (≈ 1.08 µM)
C[C@@H](OCc1ccn(Cc2c(Cl)cccc2Cl)n1)[C@](O)(Cn1cncn1)c1ccc(F)cc1F	32 µg/mL (≈ 62.9 µM)
Cc1ccccc1Cn1ccc(CO[C@H](C)[C@](O)(Cn2cncn2)c2ccc(F)cc2F)n1	> 64 µg/mL
C[C@@H](OCc1ccn(Cc2ccc(OC(F)(F)F)cc2)n1)[C@](O)(Cn1cncn1)c1ccc(F)cc1F	0.5 µg/mL (≈ 0.955 µM)
C[C@@H](OCc1ccn(Cc2ccc(F)cc2F)n1)[C@](O)(Cn1cncn1)c1ccc(F)cc1F	0.25 µg/mL (≈ 0.526 µM)
C[C@@H](OCc1ccn(Cc2ccc(C(F)(F)F)cc2)n1)[C@](O)(Cn1cncn1)c1ccc(F)cc1F	0.5 µg/mL (≈ 0.985 µM)
Cc1ccc(Cn2ccc(CO[C@H](C)[C@](O)(Cn3cncn3)c3ccc(F)cc3F)n2)cc1	16 µg/mL (≈ 35.3 µM)
C[C@@H](OCc1ccn(Cc2cccc(F)c2)n1)[C@](O)(Cn1cncn1)c1ccc(F)cc1F	64 µg/mL (≈ 140 µM)

Tested on: Nakaseomyces glabratus
Assay: Antifungal activity against Candida glabrata 537 assessed as inhibition of fungal growth incubated for 48 hrs by CLSI based broth microdilution assay
Assay type: functional
Conditions: not given

Compound	MIC
C[C@@H](OCc1ccn(Cc2cccc(F)c2F)n1)[C@](O)(Cn1cncn1)c1ccc(F)cc1F	0.25 µg/mL (≈ 0.526 µM)
C[C@@H](OCc1ccn(Cc2c(F)cc(F)cc2F)n1)[C@](O)(Cn1cncn1)c1ccc(F)cc1F	0.5 µg/mL (≈ 1.01 µM)
C[C@@H](OCc1ccn(Cc2ccc([N+](=O)[O-])cc2)n1)[C@](O)(Cn1cncn1)c1ccc(F)cc1F	≤ 0.125 µg/mL
C[C@@H](OCc1ccn(Cc2cccc(Cl)c2)n1)[C@](O)(Cn1cncn1)c1ccc(F)cc1F	0.5 µg/mL (≈ 1.06 µM)
C[C@@H](OCc1ccn(Cc2ccc(C#N)cc2)n1)[C@](O)(Cn1cncn1)c1ccc(F)cc1F	1 µg/mL (≈ 2.15 µM)
C[C@@H](OCc1ccn(Cc2c(Cl)cccc2Cl)n1)[C@](O)(Cn1cncn1)c1ccc(F)cc1F	0.5 µg/mL (≈ 0.984 µM)
Cc1ccccc1Cn1ccc(CO[C@H](C)[C@](O)(Cn2cncn2)c2ccc(F)cc2F)n1	1 µg/mL (≈ 2.21 µM)
C[C@@H](OCc1ccn(Cc2ccc(OC(F)(F)F)cc2)n1)[C@](O)(Cn1cncn1)c1ccc(F)cc1F	2 µg/mL (≈ 3.82 µM)
C[C@@H](OCc1ccn(Cc2ccc(F)cc2F)n1)[C@](O)(Cn1cncn1)c1ccc(F)cc1F	0.25 µg/mL (≈ 0.526 µM)
C[C@@H](OCc1ccn(Cc2ccc(C(F)(F)F)cc2)n1)[C@](O)(Cn1cncn1)c1ccc(F)cc1F	1 µg/mL (≈ 1.97 µM)
Cc1ccc(Cn2ccc(CO[C@H](C)[C@](O)(Cn3cncn3)c3ccc(F)cc3F)n2)cc1	2 µg/mL (≈ 4.41 µM)
C[C@@H](OCc1ccn(Cc2cccc(F)c2)n1)[C@](O)(Cn1cncn1)c1ccc(F)cc1F	0.25 µg/mL (≈ 0.547 µM)

Tested on: Cryptococcus neoformans
Assay: Antifungal activity against Cryptococcus neoformans 32609 assessed as inhibition of fungal growth incubated for 72 hrs by CLSI based broth microdilution assay
Assay type: functional
Conditions: not given

Compound	MIC
C[C@@H](OCc1ccn(Cc2cccc(F)c2F)n1)[C@](O)(Cn1cncn1)c1ccc(F)cc1F	0.5 µg/mL (≈ 1.05 µM)
C[C@@H](OCc1ccn(Cc2c(F)cc(F)cc2F)n1)[C@](O)(Cn1cncn1)c1ccc(F)cc1F	0.5 µg/mL (≈ 1.01 µM)
C[C@@H](OCc1ccn(Cc2ccc([N+](=O)[O-])cc2)n1)[C@](O)(Cn1cncn1)c1ccc(F)cc1F	0.5 µg/mL (≈ 1.03 µM)
C[C@@H](OCc1ccn(Cc2cccc(Cl)c2)n1)[C@](O)(Cn1cncn1)c1ccc(F)cc1F	0.5 µg/mL (≈ 1.06 µM)
C[C@@H](OCc1ccn(Cc2ccc(C#N)cc2)n1)[C@](O)(Cn1cncn1)c1ccc(F)cc1F	1 µg/mL (≈ 2.15 µM)
C[C@@H](OCc1ccn(Cc2c(Cl)cccc2Cl)n1)[C@](O)(Cn1cncn1)c1ccc(F)cc1F	0.25 µg/mL (≈ 0.492 µM)
Cc1ccccc1Cn1ccc(CO[C@H](C)[C@](O)(Cn2cncn2)c2ccc(F)cc2F)n1	0.5 µg/mL (≈ 1.1 µM)
C[C@@H](OCc1ccn(Cc2ccc(OC(F)(F)F)cc2)n1)[C@](O)(Cn1cncn1)c1ccc(F)cc1F	0.5 µg/mL (≈ 0.955 µM)
C[C@@H](OCc1ccn(Cc2ccc(F)cc2F)n1)[C@](O)(Cn1cncn1)c1ccc(F)cc1F	0.5 µg/mL (≈ 1.05 µM)
C[C@@H](OCc1ccn(Cc2ccc(C(F)(F)F)cc2)n1)[C@](O)(Cn1cncn1)c1ccc(F)cc1F	0.5 µg/mL (≈ 0.985 µM)
Cc1ccc(Cn2ccc(CO[C@H](C)[C@](O)(Cn3cncn3)c3ccc(F)cc3F)n2)cc1	0.5 µg/mL (≈ 1.1 µM)
C[C@@H](OCc1ccn(Cc2cccc(F)c2)n1)[C@](O)(Cn1cncn1)c1ccc(F)cc1F	0.25 µg/mL (≈ 0.547 µM)

Tested on: Candida albicans
Assay: Antifungal activity against Candida albicans SC5314 assessed as inhibition of fungal growth incubated for 48 hrs by CLSI based broth microdilution assay
Assay type: functional
Conditions: not given

Compound	MIC
C[C@@H](OCc1ccn(Cc2cccc(F)c2F)n1)[C@](O)(Cn1cncn1)c1ccc(F)cc1F	≤ 0.125 µg/mL
C[C@@H](OCc1ccn(Cc2c(F)cc(F)cc2F)n1)[C@](O)(Cn1cncn1)c1ccc(F)cc1F	0.25 µg/mL (≈ 0.507 µM)
C[C@@H](OCc1ccn(Cc2ccc([N+](=O)[O-])cc2)n1)[C@](O)(Cn1cncn1)c1ccc(F)cc1F	≤ 0.125 µg/mL
C[C@@H](OCc1ccn(Cc2cccc(Cl)c2)n1)[C@](O)(Cn1cncn1)c1ccc(F)cc1F	≤ 0.125 µg/mL
C[C@@H](OCc1ccn(Cc2ccc(C#N)cc2)n1)[C@](O)(Cn1cncn1)c1ccc(F)cc1F	≤ 0.125 µg/mL
C[C@@H](OCc1ccn(Cc2c(Cl)cccc2Cl)n1)[C@](O)(Cn1cncn1)c1ccc(F)cc1F	0.25 µg/mL (≈ 0.492 µM)
Cc1ccccc1Cn1ccc(CO[C@H](C)[C@](O)(Cn2cncn2)c2ccc(F)cc2F)n1	≤ 0.125 µg/mL
C[C@@H](OCc1ccn(Cc2ccc(OC(F)(F)F)cc2)n1)[C@](O)(Cn1cncn1)c1ccc(F)cc1F	0.25 µg/mL (≈ 0.478 µM)
C[C@@H](OCc1ccn(Cc2ccc(F)cc2F)n1)[C@](O)(Cn1cncn1)c1ccc(F)cc1F	≤ 0.125 µg/mL
C[C@@H](OCc1ccn(Cc2ccc(C(F)(F)F)cc2)n1)[C@](O)(Cn1cncn1)c1ccc(F)cc1F	0.25 µg/mL (≈ 0.493 µM)
Cc1ccc(Cn2ccc(CO[C@H](C)[C@](O)(Cn3cncn3)c3ccc(F)cc3F)n2)cc1	≤ 0.125 µg/mL
C[C@@H](OCc1ccn(Cc2cccc(F)c2)n1)[C@](O)(Cn1cncn1)c1ccc(F)cc1F	≤ 0.125 µg/mL

Tested on: Candida parapsilosis
Assay: Antifungal activity against Candida parapsilosis 22019 assessed as inhibition of fungal growth incubated for 48 hrs by CLSI based broth microdilution assay
Assay type: functional
Conditions: Lodderomyces parapsilosis

Compound	MIC
C[C@@H](OCc1ccn(Cc2cccc(F)c2F)n1)[C@](O)(Cn1cncn1)c1ccc(F)cc1F	0.5 µg/mL (≈ 1.05 µM)
C[C@@H](OCc1ccn(Cc2c(F)cc(F)cc2F)n1)[C@](O)(Cn1cncn1)c1ccc(F)cc1F	0.5 µg/mL (≈ 1.01 µM)
C[C@@H](OCc1ccn(Cc2ccc([N+](=O)[O-])cc2)n1)[C@](O)(Cn1cncn1)c1ccc(F)cc1F	0.25 µg/mL (≈ 0.516 µM)
C[C@@H](OCc1ccn(Cc2cccc(Cl)c2)n1)[C@](O)(Cn1cncn1)c1ccc(F)cc1F	0.5 µg/mL (≈ 1.06 µM)
C[C@@H](OCc1ccn(Cc2ccc(C#N)cc2)n1)[C@](O)(Cn1cncn1)c1ccc(F)cc1F	0.5 µg/mL (≈ 1.08 µM)
C[C@@H](OCc1ccn(Cc2c(Cl)cccc2Cl)n1)[C@](O)(Cn1cncn1)c1ccc(F)cc1F	1 µg/mL (≈ 1.97 µM)
Cc1ccccc1Cn1ccc(CO[C@H](C)[C@](O)(Cn2cncn2)c2ccc(F)cc2F)n1	0.5 µg/mL (≈ 1.1 µM)
C[C@@H](OCc1ccn(Cc2ccc(OC(F)(F)F)cc2)n1)[C@](O)(Cn1cncn1)c1ccc(F)cc1F	0.5 µg/mL (≈ 0.955 µM)
C[C@@H](OCc1ccn(Cc2ccc(F)cc2F)n1)[C@](O)(Cn1cncn1)c1ccc(F)cc1F	0.5 µg/mL (≈ 1.05 µM)
C[C@@H](OCc1ccn(Cc2ccc(C(F)(F)F)cc2)n1)[C@](O)(Cn1cncn1)c1ccc(F)cc1F	0.5 µg/mL (≈ 0.985 µM)
Cc1ccc(Cn2ccc(CO[C@H](C)[C@](O)(Cn3cncn3)c3ccc(F)cc3F)n2)cc1	0.25 µg/mL (≈ 0.551 µM)
C[C@@H](OCc1ccn(Cc2cccc(F)c2)n1)[C@](O)(Cn1cncn1)c1ccc(F)cc1F	0.5 µg/mL (≈ 1.09 µM)

Tested on: Pichia kudriavzevii
Assay: Antifungal activity against Candida krusei 4996 assessed as inhibition of fungal growth incubated for 48 hrs by CLSI based broth microdilution assay
Assay type: functional
Conditions: not given

Compound	MIC
C[C@@H](OCc1ccn(Cc2cccc(F)c2F)n1)[C@](O)(Cn1cncn1)c1ccc(F)cc1F	8 µg/mL (≈ 16.8 µM)
C[C@@H](OCc1ccn(Cc2c(F)cc(F)cc2F)n1)[C@](O)(Cn1cncn1)c1ccc(F)cc1F	8 µg/mL (≈ 16.2 µM)
C[C@@H](OCc1ccn(Cc2ccc([N+](=O)[O-])cc2)n1)[C@](O)(Cn1cncn1)c1ccc(F)cc1F	4 µg/mL (≈ 8.26 µM)
C[C@@H](OCc1ccn(Cc2cccc(Cl)c2)n1)[C@](O)(Cn1cncn1)c1ccc(F)cc1F	4 µg/mL (≈ 8.44 µM)
C[C@@H](OCc1ccn(Cc2ccc(C#N)cc2)n1)[C@](O)(Cn1cncn1)c1ccc(F)cc1F	8 µg/mL (≈ 17.2 µM)
C[C@@H](OCc1ccn(Cc2c(Cl)cccc2Cl)n1)[C@](O)(Cn1cncn1)c1ccc(F)cc1F	8 µg/mL (≈ 15.7 µM)
Cc1ccccc1Cn1ccc(CO[C@H](C)[C@](O)(Cn2cncn2)c2ccc(F)cc2F)n1	8 µg/mL (≈ 17.6 µM)
C[C@@H](OCc1ccn(Cc2ccc(OC(F)(F)F)cc2)n1)[C@](O)(Cn1cncn1)c1ccc(F)cc1F	2 µg/mL (≈ 3.82 µM)
C[C@@H](OCc1ccn(Cc2ccc(F)cc2F)n1)[C@](O)(Cn1cncn1)c1ccc(F)cc1F	4 µg/mL (≈ 8.41 µM)
C[C@@H](OCc1ccn(Cc2ccc(C(F)(F)F)cc2)n1)[C@](O)(Cn1cncn1)c1ccc(F)cc1F	4 µg/mL (≈ 7.88 µM)
Cc1ccc(Cn2ccc(CO[C@H](C)[C@](O)(Cn3cncn3)c3ccc(F)cc3F)n2)cc1	2 µg/mL (≈ 4.41 µM)
C[C@@H](OCc1ccn(Cc2cccc(F)c2)n1)[C@](O)(Cn1cncn1)c1ccc(F)cc1F	4 µg/mL (≈ 8.74 µM)

Tested on: Candida albicans
Assay: Antifungal activity against Candida albicans 10231 assessed as inhibition of fungal growth incubated for 48 hrs by CLSI based broth microdilution assay
Assay type: functional
Conditions: not given

Compound	MIC
C[C@@H](OCc1ccn(Cc2cccc(F)c2F)n1)[C@](O)(Cn1cncn1)c1ccc(F)cc1F	0.25 µg/mL (≈ 0.526 µM)
C[C@@H](OCc1ccn(Cc2c(F)cc(F)cc2F)n1)[C@](O)(Cn1cncn1)c1ccc(F)cc1F	0.5 µg/mL (≈ 1.01 µM)
C[C@@H](OCc1ccn(Cc2ccc([N+](=O)[O-])cc2)n1)[C@](O)(Cn1cncn1)c1ccc(F)cc1F	≤ 0.125 µg/mL
C[C@@H](OCc1ccn(Cc2cccc(Cl)c2)n1)[C@](O)(Cn1cncn1)c1ccc(F)cc1F	≤ 0.125 µg/mL
C[C@@H](OCc1ccn(Cc2ccc(C#N)cc2)n1)[C@](O)(Cn1cncn1)c1ccc(F)cc1F	0.25 µg/mL (≈ 0.538 µM)
C[C@@H](OCc1ccn(Cc2c(Cl)cccc2Cl)n1)[C@](O)(Cn1cncn1)c1ccc(F)cc1F	0.5 µg/mL (≈ 0.984 µM)
Cc1ccccc1Cn1ccc(CO[C@H](C)[C@](O)(Cn2cncn2)c2ccc(F)cc2F)n1	0.25 µg/mL (≈ 0.551 µM)
C[C@@H](OCc1ccn(Cc2ccc(OC(F)(F)F)cc2)n1)[C@](O)(Cn1cncn1)c1ccc(F)cc1F	0.25 µg/mL (≈ 0.478 µM)
C[C@@H](OCc1ccn(Cc2ccc(F)cc2F)n1)[C@](O)(Cn1cncn1)c1ccc(F)cc1F	0.25 µg/mL (≈ 0.526 µM)
C[C@@H](OCc1ccn(Cc2ccc(C(F)(F)F)cc2)n1)[C@](O)(Cn1cncn1)c1ccc(F)cc1F	≤ 0.125 µg/mL
Cc1ccc(Cn2ccc(CO[C@H](C)[C@](O)(Cn3cncn3)c3ccc(F)cc3F)n2)cc1	0.25 µg/mL (≈ 0.551 µM)
C[C@@H](OCc1ccn(Cc2cccc(F)c2)n1)[C@](O)(Cn1cncn1)c1ccc(F)cc1F	≤ 0.125 µg/mL
